Tested on: FMDV of O-type
Conditions: guinea pig, in vivo

**Q.** Which “resistance to FMD on repeated infection” value does the source give for “RNase: recombinant / wild-type human RNase I (Examples 22, 30, 31)” here?
**A.** resistant to FMD following subsequent repeated infection
